Consider eleven molecules from patent US5045533A, “Retinoic esters of antibiotics and pharmaceutical and cosmetic compositions containing them” (L'Oreal, priority 1986, dated 1991).

The subject of one assay is P37 E⊕ (sensitive). Nature of the assay: MIC by dilution method, P37 E⊕ (sensitive) strain. As to conditions: for MIC: Cutibacterium acnes; for activity on sensitive strains relative to the esters of the invention: P37 E⊕. The assay is classed as cell-based, propionibacterium acnes. The text has this: (§1) The activity of retinoic esters of antibiotics namely of erythromycin A, lincomycin and clindamycin has been studied by the dilution method, so as to determine, the minimal inhibitory concentration (MIC), this method being described and employed by G. A. Denys et al, "Antimicrobial Agents and Chemotherapy" 1983) 23, 335-337 and J. J. Leyden et al, J. Am. Acad. Dermatol. (1983), 8, (1) 41-5, by using as the strain of propionibacterium acnes, the P37 strain furnished by Cunliffe and Holland.
(§2) (2) at 1 cm beyond the periphery of the zone of inhibition strains called P37 E⊕ are retained.
(§3) After isolation and culture, the P37 E⊕ and P37 E⊖ strains effectively show very different sensitivities to erythromycin as is illustrated by the following respective MIC values:
(§4) The Minimal Inhibitory Concentration (MIC) expressed in μg/ml of the tested retinoic esters of erythromycin A, lincomycin and clindamycin vis-a-vis the P37⊕ and P37⊖ strains is reported in the following tables

Another assay deals with P37 E⊖ (resistant). Nature of the assay: MIC by dilution method, P37 E⊖ (resistant) strain. The assay is classed as cell-based, propionibacterium acnes. The following applies: for MIC: Cutibacterium acnes; for activity on resistant strains relative to the esters of the invention: P37 E⊖.
Source text: as §1
(§5) (1) at the interior of the zone of inhibition strains called P37 E⊖ are retained because of their apparent resistance to erythromycin;
as §3, §4

The subject of another assay is Staph. Epi. 3. Kind of assay: MIC, Staph. Epi. 3 strain. As to conditions: Staphylococcus epidermidis; strain isolated from an acne patient; read-out: minimal inhibitory concentrations, Staph. Epi. 3. It is filed as cell-based.
Source text: as §1
(§6) The "Staph. Epi. 3" strain is isolated from an acne patient whereas the "Staph. Epi. 6" strain is isolated from a non-acne patient. The isolation of these strains is carried out in accordance with the Williamson-Kligman method, ("A new method for the quantitative investigation of cutaneous bacteria", P. Williamson and A. Kligman, J. I. D., Vol. 45, No. 6, 1965). Decimal dilutions of the retained portions are effected and 0.1 ml of these dilutions is inoculated on a selective medium permitting isolation of staphylococcus.

The next assay deals with Staph. Epi. 6. Kind of assay: MIC, Staph. Epi. 6 strain. It is filed as cell-based. As to conditions: Staphylococcus epidermidis; strain isolated from a non-acne patient; read-out: minimal inhibitory concentrations, Staph. Epi. 6.
Source text: as §1, §6

In a further assay the test system is P37 strain. Nature of the assay: zone of inhibition of growth around disk in Petri dish. The following applies: Cutibacterium acnes, 144 h; 50 μg erythromycin in DMSO on 9 mm disk; 6 days at 36° C., anaerobic; after 8 sub-cultures; read-out: zone of inhibition of the growth of the strain, total diameter. The assay is classed as cell-based, propionibacterium acnes. How it is done: On the other hand, after 8 successive sub-cultures in the same medium (RCM, Reinforced Clostridium Medium (oxoid) 19/20, DMSO […] by volume) so as to obtain a progressive stabilization of the strain to this medium, a progressive resistance to erythromycin is manifested in the following form.
After exposure of a standardized inoculum (DO=1.8 to […]) on gelose medium (RCM+ furazolidone) in a Petri dish, a 9 mm diameter disk is deposited at its center. On this disk, 50 μg of erythromycin (in solution in DMSO) are deposited.

Another assay concerns P37. Nature of the assay: IC 50 (Inhibitory Concentration at 50%), P37. The following applies: Cutibacterium acnes, constant culture time, 50% of survivors. The assay is classed as cell-based, propionibacterium acnes. The text has this: (§7) This phenomeon is confirmed by the study of the IC 50 (Inhibitory Concentration at 50%) which represents the concentration of erythromycin where, at a constant culture time, 50% of survivors among the population are found.

The test system of the next assay is P37 E⊕. Nature of the assay: IC 50 (Inhibitory Concentration at 50%), P37 E⊕. The following applies: Cutibacterium acnes, constant culture time, 50% of survivors. It is filed as cell-based, propionibacterium acnes.
Source text: as §2, §7

Another assay relates to P37 E⊖. Kind of assay: IC 50 (Inhibitory Concentration at 50%), P37 E⊖. The assay is classed as cell-based, propionibacterium acnes. The following applies: Cutibacterium acnes.
Source text: as §5, §7

[1] abbreviates: sensitive strain, retinoic ester table, read-out: Minimal Inhibitory Concentration (MIC), P37 E⊕ (sensitive).
Where [2] appears, read: read-out: Minimal Inhibitory Concentration (MIC), P37 E⊖ (resistant).

Structures are written as SMILES. In brackets after ≈: the same amount, converted by molar mass. Where two headings read alike, the source gives them in different places.

On to `CCC[C@@H]1C[C@@H](C(=O)N[C@@H]([C@H]2O[C@H](SC)[C@H](O)[C@@H](O)[C@H]2O)[C@H](C)Cl)N(C)C1` [Clindamycin], for which the MIC in the assay on P37 E⊕ (sensitive) (setting [1]) was found to be 1 µg/mL (≈ 2.35 µM); in the assay with P37 E⊖ (resistant) (setting [2]), 10 µg/mL (≈ 23.5 µM); in the assay with Staph. Epi. 3 it was 7 µg/mL (≈ 16.5 µM); in the assay on Staph. Epi. 6, 8 µg/mL (≈ 18.8 µM).

For the molecule `CC[C@H]1OC(=O)[C@H](C)[C@@H](O[C@H]2C[C@@](C)(OC)[C@@H](O)[C@H](C)O2)[C@H](C)[C@@H](O[C@@H]2O[C@H](C)C[C@H](N(C)C)[C@H]2O)[C@](C)(O)C[C@@H](C)C(=O)[C@H](C)[C@@H](O)[C@]1(C)O` [Erythromycin A], the MIC in the assay on P37 E⊕ (sensitive) (P37 E⊕ strain, strain characterisation table, read-out: MIC) was 0.78 µg/mL (≈ 1.06 µM); in the assay on P37 E⊕ (sensitive) (setting [1]), 1 µg/mL (≈ 1.36 µM); with P37 E⊖ (resistant) it was 50 µg/mL (≈ 68.1 µM); in the assay on P37 E⊖ (resistant) (setting [2]) it was greater than 50 µg/mL; in the assay with Staph. Epi. 3, 13 µg/mL (≈ 17.7 µM); in the assay on Staph. Epi. 6, 30 µg/mL (≈ 40.9 µM). In addition, the zone of inhibition (usually the size of the clear area around the sample on an inoculated plate) at 50 µg/disc with P37 strain was found to be 42 mm. For the same molecule, the figures for the IC50 with P37, with P37 E⊕ and in the assay on P37 E⊖ were 50 µg/mL (≈ 68.1 µM), 5 µg/mL (≈ 6.81 µM) and 100 µg/mL (≈ 136 µM), respectively.

For the molecule `CCC[C@@H]1C[C@@H](C(=O)N[C@@H]([C@H]2O[C@H](SC)[C@H](O)[C@@H](O)[C@H]2O)[C@@H](C)O)N(C)C1` [Lincomycin], the MIC is 13 µg/mL (≈ 32 µM) in the assay on P37 E⊕ (sensitive) (setting [1]), 66 µg/mL (≈ 162 µM) in the assay with P37 E⊖ (resistant) (setting [2]), 14 µg/mL (≈ 34.4 µM) in the assay with Staph. Epi. 3 and 20 µg/mL (≈ 49.2 µM) in the assay with Staph. Epi. 6.

On to `CCCCCCCC/C=C\CCCCCCCC(=O)O[C@H]1[C@H](O[C@@H]2[C@@H](C)[C@H](O[C@H]3C[C@@](C)(OC)[C@@H](O)[C@H](C)O3)[C@@H](C)C(=O)O[C@H](CC)[C@@](C)(O)[C@H](O)[C@@H](C)C(=O)[C@H](C)C[C@@]2(C)O)O[C@H](C)C[C@@H]1N(C)C` [O-oleoyl-2'-erythromycin A (Z-9)], for which the MIC amounted to 50 µg/mL (≈ 50.1 µM) with P37 E⊕ (sensitive) (setting [1]) and 100 µg/mL (≈ 100 µM) in the assay with P37 E⊖ (resistant) (setting [2]). In the assay with P37 E⊕ (sensitive), the “activity on sensitive strains relative to the esters of the invention” value is recorded as “clearly less active”. For the same molecule, the “activity on resistant strains relative to the esters of the invention” value in the assay on P37 E⊖ (resistant) is recorded as “clearly less active”.

`CCCCCCCC/C=C\CCCCCCCC(=O)O[C@H]1[C@@H](O)[C@@H]([C@H](NC(=O)[C@@H]2C[C@@H](CCC)CN2C)[C@H](C)Cl)O[C@H](SC)[C@@H]1O` [O-oleoyl-3-clindomycin]: the MIC with P37 E⊕ (sensitive) (setting [1]) is 54 µg/mL (≈ 78.3 µM); in the assay on P37 E⊖ (resistant) (setting [2]), greater than 138 µg/mL. The “activity on sensitive strains relative to the esters of the invention” value in the assay with P37 E⊕ (sensitive) is given as “clearly less active”. For the same molecule, the “activity on resistant strains relative to the esters of the invention” value in the assay on P37 E⊖ (resistant) is recorded as “clearly less active”.

For the molecule `CCCCCCCC/C=C\CCCCCCCC(=O)O[C@H]1[C@@H](O)[C@@H]([C@H](NC(=O)[C@@H]2C[C@@H](CCC)CN2C)[C@@H](C)O)O[C@H](SC)[C@@H]1O` [O-oleoyl-3-lincomycin], the values for the MIC in the assay with P37 E⊕ (sensitive) (setting [1]) and in the assay on P37 E⊖ (resistant) (setting [2]) were 19 µg/mL (≈ 28.3 µM) and 42 µg/mL (≈ 62.6 µM), respectively.

For the molecule `CC[C@H]1OC(=O)[C@H](C)[C@@H](O[C@H]2C[C@@](C)(OC)[C@@H](O)[C@H](C)O2)[C@H](C)[C@@H](O[C@@H]2O[C@H](C)C[C@H](N(C)C)[C@H]2OC(=O)\C=C(C)/C=C/C=C(C)/C=C/C2=C(C)CCCC2(C)C)[C@](C)(O)C[C@@H](C)C(=O)[C@H](C)[C@@H](O)[C@]1(C)O` [O-retinoyl (13-cis)-2'-erythromycin A], the MIC is 20 µg/mL (≈ 19.7 µM) with P37 E⊕ (sensitive) (setting [1]), 34 µg/mL (≈ 33.5 µM) in the assay on P37 E⊖ (resistant) (setting [2]), 110 µg/mL (≈ 108 µM) with Staph. Epi. 3 and 110 µg/mL (≈ 108 µM) with Staph. Epi. 6.

Consider `CCC[C@@H]1C[C@@H](C(=O)N[C@@H]([C@H]2O[C@H](SC)[C@H](O)[C@@H](OC(=O)\C=C(C)/C=C/C=C(C)/C=C/C3=C(C)CCCC3(C)C)[C@H]2O)[C@H](C)Cl)N(C)C1` [O-retinoyl (13-cis)-3-clindamycin], for which the MIC in the assay on P37 E⊕ (sensitive) (setting [1]) turned out to be 1.5 µg/mL (≈ 2.12 µM); with P37 E⊖ (resistant) (setting [2]), 35 µg/mL (≈ 49.5 µM); with Staph. Epi. 3, 113 µg/mL (≈ 160 µM); with Staph. Epi. 6, 113 µg/mL (≈ 160 µM).

As for `CCC[C@@H]1C[C@@H](C(=O)N[C@@H]([C@H]2O[C@H](SC)[C@H](O)[C@@H](OC(=O)\C=C(C)/C=C/C=C(C)/C=C/C3=C(C)CCCC3(C)C)[C@H]2O)[C@@H](C)O)N(C)C1` [O-retinoyl (13-cis)-3-lincomycin], the MIC in the assay with P37 E⊕ (sensitive) (setting [1]) was found to be 17.5 µg/mL (≈ 25.4 µM); with P37 E⊖ (resistant) (setting [2]) it was 25 µg/mL (≈ 36.3 µM); in the assay with Staph. Epi. 3, 100 µg/mL (≈ 145 µM); with Staph. Epi. 6, 100 µg/mL (≈ 145 µM).

Regarding `CC[C@H]1OC(=O)[C@H](C)[C@@H](O[C@H]2C[C@@](C)(OC)[C@@H](O)[C@H](C)O2)[C@H](C)[C@@H](O[C@@H]2O[C@H](C)C[C@H](N(C)C)[C@H]2OC(=O)/C=C(C)/C=C/C=C(C)/C=C/C2=C(C)CCCC2(C)C)[C@](C)(O)C[C@@H](C)C(=O)[C@H](C)[C@@H](O)[C@]1(C)O` [O-retinoyl (all trans)-2'-erythromycin A], the MIC is 14 µg/mL (≈ 13.8 µM) with P37 E⊕ (sensitive) (setting [1]), 13 µg/mL (≈ 12.8 µM) in the assay on P37 E⊖ (resistant) (setting [2]), 75 µg/mL (≈ 73.8 µM) in the assay with Staph. Epi. 3 and 80 µg/mL (≈ 78.7 µM) with Staph. Epi. 6.

As to `CCC[C@@H]1C[C@@H](C(=O)N[C@@H]([C@H]2O[C@H](SC)[C@H](O)[C@@H](OC(=O)/C=C(C)/C=C/C=C(C)/C=C/C3=C(C)CCCC3(C)C)[C@H]2O)[C@H](C)Cl)N(C)C1` [O-retinoyl (all-trans)-3-clindamycin, O-retinoyl (all trans)-3-clindamycin], the figures for the MIC in the assay with P37 E⊕ (sensitive) (setting [1]) and in the assay with P37 E⊖ (resistant) (setting [2]) were 18 µg/mL (≈ 25.4 µM) and 50 µg/mL (≈ 70.7 µM), respectively.
